Assay results from US8859491B2 (priority 2011, dated 2014).
Non-standard residues stand in square brackets, D forms with d. No end group written: not given here. Aib = CC(C)(N)C(=O)O

Legend:
[1] = Stability analysis in 100% human plasma (estrogen release); conditions: 1 mg/mL, pH 7.4, 37° C.
[2] = target: T1, glucocorticoid receptor (Homo sapiens, UniProt P04150); experiment: EC50
T1 construct: two clones of HeLa cells (ATCC #CCL-2) transfected with murine mammary tumor virus long terminal repeat-driven firefly luciferase; host or cells: HeLa
T1 sequence (P04150 whole entry, looked up): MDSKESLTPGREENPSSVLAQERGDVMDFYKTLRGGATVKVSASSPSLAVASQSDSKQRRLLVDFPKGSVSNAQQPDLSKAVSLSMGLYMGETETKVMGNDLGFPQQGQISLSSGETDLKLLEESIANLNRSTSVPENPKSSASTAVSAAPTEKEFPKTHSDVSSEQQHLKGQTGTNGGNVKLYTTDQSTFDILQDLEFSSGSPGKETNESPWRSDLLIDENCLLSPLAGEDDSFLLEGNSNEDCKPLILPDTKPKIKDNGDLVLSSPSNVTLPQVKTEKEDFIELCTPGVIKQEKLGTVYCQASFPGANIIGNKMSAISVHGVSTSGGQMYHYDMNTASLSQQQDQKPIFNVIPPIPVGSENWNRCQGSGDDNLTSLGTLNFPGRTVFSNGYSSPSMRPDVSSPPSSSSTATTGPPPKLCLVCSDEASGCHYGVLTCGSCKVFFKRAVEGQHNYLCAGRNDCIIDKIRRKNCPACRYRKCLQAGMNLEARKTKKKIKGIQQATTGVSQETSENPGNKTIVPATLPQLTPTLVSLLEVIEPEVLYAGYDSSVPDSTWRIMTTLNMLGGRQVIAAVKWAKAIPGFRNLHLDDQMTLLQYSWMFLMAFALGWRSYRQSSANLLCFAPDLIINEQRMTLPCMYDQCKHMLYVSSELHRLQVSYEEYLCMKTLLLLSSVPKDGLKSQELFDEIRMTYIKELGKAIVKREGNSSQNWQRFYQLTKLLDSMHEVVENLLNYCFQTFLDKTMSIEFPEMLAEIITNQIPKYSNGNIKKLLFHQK

[3] = Administration of GLP-1 conjugates to db/db mice (FIG. 2); assay type: in vivo; conditions: high dose
[4] = Administration of GLP-1 conjugates to diet induced obese mice (FIGS. 3-10, 12); assay type: in vivo; conditions: for change in blood glucose: FIG. 5b, SEQ ID NO: 1647 at high or low doses, SEQ ID NO: 1651 at high dose; for blood glucose levels: FIG. 7b
[5] = Example 13: db/db mice, daily sc dosing; assay type: in vivo
Description: Mice (db/db, N=6, average initial body weight=54 g) were subcutaneously injected once per day for four weeks with vehicle or 40 or 400 μg/kg of one of the following:
Body weight was measured after 23 days and the change in body weight was determined (FIG. 2a).

[6] = Example 14: DIO mice, daily sc dosing; assay type: in vivo
Description: Diet-induced obesity (DIO) mice (N=8, 6 mice per group, average initial body weight=58 g) were subcutaneously injected once per day for four weeks with vehicle or 4, 40, or 400 μg/kg of one of the following:
A saline solution comprising 25% (v/v) glucose was injected at a dose of 1.5 g/kg of body weight at the 0 min time point on days 7 and 21. Blood glucose was measured at the 0, 15, 30, 60, and 120 min time points on day 7 and day 21 (FIG. 3a).
Body weight was measured after 23 days and the change in body weight, change in fat mass, and change in lean muscle mass were determined (FIGS. 3b-d).

[7] = Example 15: DIO mice, daily sc dosing; assay type: in vivo; conditions: high dose, between days 0 and 21
Description: Diet-induced obesity (DIO) mice (N=8, average initial body weight=59 g) were subcutaneously injected once per day for four weeks with vehicle or one of the following: […] Blood glucose levels were measured at the 0, 15, 30, 60, and 120 min time points. FIG. 4a presents data from this experiment. Body weight was measured after 21 days and the change in total body weight and fat mass were determined (FIGS. 4b-c).

[8] = high dose (400 μg/kg-day), after 23 days
[9] = high dose, between days 0 and 14
[10] = high dose, between days 0 and 21, vs GLP-1(Aib2E16Cex K40) (SEQ ID NO: 1647) alone, FIG. 4d
[11] = over a period of 7 days, FIG. 7a

CC[C@H](C)[C@H](NC(=O)[C@H](Cc1ccccc1)NC(=O)[C@H](CCC(=O)O)NC(=O)[C@H](CCCCN)NC(=O)[C@H](C)NC(=O)[C@H](C)NC(=O)[C@H](CCC(N)=O)NC(=O)[C@H](CCC(=O)O)NC(=O)[C@H](CCC(=O)O)NC(=O)[C@H](CC(C)C)NC(=O)[C@H](Cc1ccc(O)cc1)NC(=O)[C@H](CO)NC(=O)[C@H](CO)NC(=O)[C@@H](NC(=O)[C@H](CC(=O)O)NC(=O)[C@H](CO)NC(=O)[C@@H](NC(=O)[C@H](Cc1ccccc1)NC(=O)[C@@H](NC(=O)CNC(=O)[C@H](CCC(=O)O)NC(=O)C(C)(C)NC(=O)[C@@H](N)Cc1c[nH]cn1)[C@@H](C)O)[C@@H](C)O)C(C)C)C(=O)N[C@@H](C)C(=O)N[C@@H](Cc1c[nH]c2ccccc12)C(=O)N[C@@H](CC(C)C)C(=O)N[C@H](C(=O)N[C@@H](CCCCN)C(=O)NCC(=O)NCC(=O)N1CCC[C@H]1C(=O)N[C@@H](CO)C(=O)N[C@@H](CO)C(=O)NCC(=O)N[C@@H](C)C(=O)N1CCC[C@H]1C(=O)N1CCC[C@H]1C(=O)N1CCC[C@H]1C(=O)N[C@@H](CO)C(=O)N[C@@H](CCCCNC(=O)CCC(=O)Oc1ccc2c(c1)CC[C@@H]1[C@@H]2CC[C@]2(C)[C@@H](OC(C)=O)CC[C@@H]12)C(N)=O)C(C)C [GLP-1/Estrogen(3-ester)]
estrogen release in plasma [1]: substantial estrogen release after 3 hours
time to complete estrogen release in plasma [1]: ≤ 6 h

CC[C@H](C)[C@H](NC(=O)[C@H](Cc1ccccc1)NC(=O)[C@H](CCC(=O)O)NC(=O)[C@H](CCCCN)NC(=O)[C@H](C)NC(=O)[C@H](C)NC(=O)[C@H](CCC(N)=O)NC(=O)[C@H](CCC(=O)O)NC(=O)[C@H](CCC(=O)O)NC(=O)[C@H](CC(C)C)NC(=O)[C@H](Cc1ccc(O)cc1)NC(=O)[C@H](CO)NC(=O)[C@H](CO)NC(=O)[C@@H](NC(=O)[C@H](CC(=O)O)NC(=O)[C@H](CO)NC(=O)[C@@H](NC(=O)[C@H](Cc1ccccc1)NC(=O)[C@@H](NC(=O)CNC(=O)[C@H](CCC(=O)O)NC(=O)C(C)(C)NC(=O)[C@@H](N)Cc1c[nH]cn1)[C@@H](C)O)[C@@H](C)O)C(C)C)C(=O)N[C@@H](C)C(=O)N[C@@H](Cc1c[nH]c2ccccc12)C(=O)N[C@@H](CC(C)C)C(=O)N[C@H](C(=O)N[C@@H](CCCCN)C(=O)NCC(=O)NCC(=O)N1CCC[C@H]1C(=O)N[C@@H](CO)C(=O)N[C@@H](CO)C(=O)NCC(=O)N[C@@H](C)C(=O)N1CCC[C@H]1C(=O)N1CCC[C@H]1C(=O)N1CCC[C@H]1C(=O)N[C@@H](CO)C(=O)NC(C(N)=O)C(C)(C)SSCCNC(=O)OCC(=O)[C@@]1(O)[C@H](C)C[C@H]2[C@@H]3CCC4=CC(=O)C=C[C@]4(C)[C@@]3(F)[C@@H](O)C[C@@]21C)C(C)C (stereo partly drawn) [[Aib2, E16]GLP-1-CEX-Pen40(S—SCH2CH2NHCO—O-DEX)]
EC50 [2]: 73.3 µM

CC[C@H](C)[C@H](NC(=O)[C@H](Cc1ccccc1)NC(=O)[C@H](CCC(=O)O)NC(=O)[C@H](CCCCN)NC(=O)[C@H](C)NC(=O)[C@H](C)NC(=O)[C@H](CCC(N)=O)NC(=O)[C@H](CCC(=O)O)NC(=O)[C@H](CCC(=O)O)NC(=O)[C@H](CC(C)C)NC(=O)[C@H](Cc1ccc(O)cc1)NC(=O)[C@H](CO)NC(=O)[C@H](CO)NC(=O)[C@@H](NC(=O)[C@H](CC(=O)O)NC(=O)[C@H](CO)NC(=O)[C@@H](NC(=O)[C@H](Cc1ccccc1)NC(=O)[C@@H](NC(=O)CNC(=O)[C@H](CCC(=O)O)NC(=O)C(C)(C)NC(=O)[C@@H](N)Cc1c[nH]cn1)[C@@H](C)O)[C@@H](C)O)C(C)C)C(=O)N[C@@H](C)C(=O)N[C@@H](Cc1c[nH]c2ccccc12)C(=O)N[C@@H](CC(C)C)C(=O)N[C@H](C(=O)N[C@@H](CCCCN)C(=O)NCC(=O)NCC(=O)N1CCC[C@H]1C(=O)N[C@@H](CO)C(=O)N[C@@H](CO)C(=O)NCC(=O)N[C@@H](C)C(=O)N1CCC[C@H]1C(=O)N1CCC[C@H]1C(=O)N1CCC[C@H]1C(=O)N[C@@H](CO)C(=O)NC(CCSSCCNC(=O)OCC(=O)[C@@]1(O)[C@H](C)C[C@H]2[C@@H]3CCC4=CC(=O)C=C[C@]4(C)[C@@]3(F)[C@@H](O)C[C@@]21C)C(N)=O)C(C)C (stereo partly drawn) [[Aib2, E16]GLP-1-CEX-homoCys40(S—SCH2CH2NHCO—O-DEX)]
EC50 [2]: 65.4 µM

GLP-1(Aib^2A^22CexK^40)/Estrogen(17-ester) (H[Aib]EGTFTSDVSSYLEGQAAKEAIAWLVKGGPSSGAPPPSK-NH2; not fully specified (residue 40)) [SEQ ID NO: 1656]
change in body weight ([3]; FIG. 2a): slightly greater decrease in body weight than mice that were administered GLP-1 alone, but similar to vehicle
blood glucose levels ([3]; between days 0 and 14, FIGS. 2b and 2c): greatest decrease
change in body weight ([4]; high dose, FIG. 3b): greatest decrease
change in fat mass ([4]; high dose, FIG. 3c): greatest decrease
change in lean muscle mass ([4]; high dose, FIG. 3d): least amount of change
changes in blood glucose ([4]; high dose, between days 0 and 14, FIG. 3e): greatest decrease

GLP-1(Aib^2A^22CexK^40)/Estrogen(17-ester): A22 GLP-1 analog conjugated to estrogen by 17-ester (H[Aib]EGTFTSDVSSYLEGQAAKEAIAWLVKGGPSSGAPPPSK-NH2; not fully specified (residue 40))
change in body weight [5, 8]: greater decrease in body weight then mice that were administered GLP-1 alone
cumulative food intake ([5]; high dose, 23 days): consumed less food than those that were administered GLP-1 alone
blood glucose levels [5, 9]: greatest decrease in blood glucose levels
change in body weight [6, 8]: greatest decrease in body weight
cumulative food intake ([6]; high dose, 23 days): consumed the least amount of food
change in fat mass ([6]; high dose, after 23 days): greatest decrease in body weight and fat mass
change in lean muscle mass ([6]; high dose, after 23 days): least amount of lean muscle mass loss
change blood glucose [6, 9]: greatest decrease in blood glucose levels

GLP-1(Aib^2E^16Cex K^40) (H[Aib]EGTFTSDVSSYLEEQAAKEFIAWLVKGGPSSGAPPPSK-NH2) [SEQ ID NO: 1647]
change in blood glucose [4]: greatest change

GLP-1(Aib^2E^16Cex K^40)/Estrogen(3-ester) (H[Aib]EGTFTSDVSSYLEEQAAKEFIAWLVKGGPSSGAPPPSK-NH2; not fully specified (residue 40)) [SEQ ID NO: 1658]
change in blood glucose levels ([4]; between days 0 and 7, FIG. 8b): greatest change

GLP-1(Aib^2E^16K^40Cex)/Estrogen(3-ether) (H[Aib]EGTFTSDVSSYLEEQAAKEFIAWLVKGGPSSGAPPPSK-NH2; not fully specified (residue 40)) [SEQ ID NO: 1651]
change in blood glucose [4]: greatest change
change in blood glucose levels ([4]; between days 0 and 7, FIG. 6c): greatest change
change in blood glucose levels [4, 10]: greater change
total body weight [4, 11]: greatest decrease
blood glucose levels ([4]; over a period of 7 days): greatest decrease
change in blood glucose levels [7]: greater change in blood glucose levels

GLP-1(Aib^2E^16K^40Cex)/Estrogen(17-ester) (H[Aib]EGTFTSDVSSYLEEQAAKEFIAWLVKGGPSSGAPPPSK-NH2; not fully specified (residue 40)) [SEQ ID NO: 1655]
change in blood glucose levels ([4]; between days 0 and 7, FIG. 6c): greatest change
change in blood glucose levels [4, 10]: greater change
total body weight [4, 11]: greatest decrease
blood glucose levels ([4]; over a period of 7 days): greatest decrease
change in blood glucose levels [7]: greater change in blood glucose levels

d-amino acid containing GLP-1/Estrogen ester conjugate: d-amino acid containing GLP-1/Estrogen conjugate, estrogen covalently linked as ester that was unstable in vivo ([dA][Aib][dE]G[dT][dF][dT][dS][dD][dV][dS][dS][dY][dL][dE]G[dQ][dA][dA][dK][dE][dA][dI][dA][dW][dL][dV][dK]GG[dP][dS][dS]G[dA][dP][dP][dP][dS]K-NH2; not fully specified (residue 40))
total body weight ([4]; FIG. 10a): greatest decrease
change in blood glucose levels ([4]; between days 0 and 7, vs comparable d-amino acid peptide with stable estrogen conjugate, FIG. 10b): greater change
